Reference: patent US7064139B2, “Method for treating retroviral infections” (Uniroyal Chemical Company, Inc., priority 2001, dated 2006)
≈ marks a conversion by molar mass, not a printed value. Like-named read-outs stand apart in the source and are kept apart here.

Legend:
HIV-2 (ROD) = test: Inhibition of HIV-2 syncytium formation in CEM cells; format: cell-based; conditions: for HIV-2 % Protection: protection of CEM cells against virus-induced cytopathicity at the concentration in the previous column; for EC50: Human immunodeficiency virus 2, CCRF-CEM, read-out: EC50 (ug/ml) HIV-2
Text: (§1) The cell type used to determine activity of the compounds of the invention herein, i.e., the test compounds, against HIV was human T-lymphoblast (CEM) cells obtained from the American Tissue Cell Culture Collection (Rockville, Md.). HIV-1 (IIIB) was originally obtained from the culture of persistently HIV-1 infected H9 cells and was provided by R. C. Gallo and M. Popovic (National Cancer Institute, National Institutes of Health, Bethesda, Md.). HIV-2 (ROD) was originally obtained from L. M. Montagnier (Pasteur Institute, Paris, France).
(§2) To determine the antiviral activity of the test compounds, CEM cells were suspended at a cell density of approximately 300,000 cells per ml of culture medium and infected with approximately 100 CCID50 (100 CCID50 being the 50% cell culture infective dose) of HIV-1 (IIIB) or HIV-2 (ROD)). Then 100 μl of the infected cell suspensions was added to 200 μl micro titer plate wells containing 100 μl of appropriate serial (5-fold) dilutions of the test compounds. The inhibitory effect of the test compounds on HIV-1 or HIV-2 syncytium formation in CEM cells was examined microscopically on day four post infection.
(§3) In these cases, the percent protection of the cells against virus-induced cytopathicity by the test compounds at the indicated compound concentration in the previous column is given.

HIV-1 (IIIB) = test: microbe, parasite or virus in culture; format: cell-based; conditions: for HIV-1 % Protection: protection of CEM cells against virus-induced cytopathicity at the concentration in the previous column; for EC50: Human immunodeficiency virus 1, IIIB, CCRF-CEM, read-out: EC50 (ug/ml) HIV-1
Text: as §1, §2, §3

Davis strain CMV = test: Reduction of CMV-induced cytopathicity in HEL cells; format: cell-based, human cytomegalovirus (HCMV); conditions: for Antiviral % Inhibition Davis strain CMV: estimate of percent protection at the concentration in the previous column; for EC50: read-out: Antiviral EC50 (ug/ml) Davis strain CMV
Description: Confluent HEL cells grown in […] microtiter plates were inoculated with CMV at an input of 100 PFU (plaque forming units) per well. After a one to two hour incubation period, residual virus was removed and the infected cells were further incubated with MEM (Minimal Essential Medium) (supplemented with 2% inactivated Fetal Calf Serum (FCS), […], and 0.3% sodium bicarbonate) containing varying concentrations of the test compounds. Antiviral activity was expressed as EC50 (50% effective concentration), or test compound concentration required to reduce virus-induced cytopathicity after seven days by 50% compared to the untreated control.
In some cases, the compounds had considerable cytotoxicity against HEL cells, which made determination of the EC50 difficult. In these cases, an estimate of the percent protection at the compound concentration indicated in the previous columns is given.

[1] = CEM cells, syncytium formation, day four post infection
[2] = HEL cells, virus-induced cytopathicity after seven days
[3] = Human betaherpesvirus 5, 168 h, HEL cells, virus-induced cytopathicity after seven days
[4] = Human betaherpesvirus 5, HEL, 168 h

Row | SMILES | EC50 (ug/ml) HIV-2 (HIV-2 (ROD); [1]) | EC50 (ug/ml) HIV-1 (HIV-1 (IIIB); [1]) | Antiviral EC50 (ug/ml) Davis strain CMV (Davis strain CMV; [2]) [µg/mL] | HIV-2 % Protection (HIV-2 (ROD)) [%] | HIV-1 % Protection (HIV-1 (IIIB)) [%] | other results
1 | O=S(=O)(Cc1ccc(CS(=O)(=O)c2cccc[n+]2[O-])cc1)c1cccc[n+]1[O-] [Compound 23] | ≧20 ug/ml | ≧20 ug/ml | >20 | 37.5 | 37.5 | Antiviral % Inhibition Davis strain CMV (Davis strain CMV; HEL cells): 20.0%
2 | O=S(=O)(Cc1cccc(F)c1)c1cccc[n+]1[O-] [Compound 28] | 7.5 µg/mL (≈ 28.1 µM) | 6.50 µg/mL (≈ 24.3 µM) | >20 | – | – | Antiviral % Inhibition Davis strain CMV (Davis strain CMV; HEL cells): 40.0%
3 | Nc1ccn(C[C@@H](CO)OCP(=O)(O)O)c(=O)n1 [S-HPMPC, reference compound] | – | – | 0.3 | – | – | –
4 | Cc1ccc(C[S+]([O-])c2cccc[n+]2[O-])cc1C (centres unmarked) [Compound 89] | 2.8 µg/mL (≈ 10.7 µM) | 2.50 µg/mL (≈ 9.57 µM) | 20.0 | – | – | –
5 | Cc1ccc(C(C)S(=O)(=O)c2c(C)ccc[n+]2[O-])c(C)c1 (racemic) [Compound 78] | >100.0 µg/mL | 1.40 µg/mL (≈ 4.58 µM) | 10.0 | 0.0 | – | –
6 | O=S(=O)(Cc1ccccc1I)c1cccc[n+]1[O-] [Compound 44] | 3.4 µg/mL (≈ 9.06 µM) | 5.30 µg/mL (≈ 14.1 µM) | >20 | – | – | Antiviral % Inhibition Davis strain CMV (Davis strain CMV; HEL cells): 20.0%
7 | O=S(=O)(Cc1ccc2c(c1)OCO2)c1cccc[n+]1[O-] [Compound 39] | – | 9.00 µg/mL (≈ 30.7 µM) | >20 | – | – | Antiviral % Inhibition Davis strain CMV (Davis strain CMV; HEL cells): 30.0%
8 | CCc1ccc(CS(=O)(=O)c2cccc[n+]2[O-])cc1 [Compound 59] | 5.0 µg/mL (≈ 18 µM) | 5.50 µg/mL (≈ 19.8 µM) | 10.0 | – | – | –
9 | COc1ccc(Br)c(CS(=O)(=O)c2cccc[n+]2[O-])c1 [Compound 31] | 9.0 µg/mL (≈ 25.1 µM) | 4.00 µg/mL (≈ 11.2 µM) | 10.0 | – | – | –
10 | Cc1ccc(C)c(C(C)S(=O)(=O)c2cc(C)cc[n+]2[O-])c1 (centres unmarked) [Compound 108, 2-[1-(2,5-Dimethylphenyl)ethylsulfonyl]-4-methylpyridine N-oxide] | – | – | – | 37.5 | – | EC50 (HIV-2 (ROD); [1]): ≥ 20 µg/mL; EC50 (HIV-1 (IIIB); [1]): 0.75 µg/mL (≈ 2.46 µM); EC50 (Davis strain CMV; [3]): 38 µg/mL (≈ 124 µM)
11 | Cc1ccc(C)c(C(C)Sc2cc(C)c3ccccc3n2)c1 (centres unmarked) [Compound 162, 2-[[1-(2,5dimethylphenyl)ethyl]thio]-4-methyl-Quinoline] | – | – | – | 0.0 | 0.0 | EC50 (HIV-2 (ROD)): > 0.16 µg/mL; EC50 (HIV-1 (IIIB)): > 0.8 µg/mL; EC50 (Davis strain CMV; [4]): 1.6 µg/mL (≈ 5.2 µM)
12 | Cc1ccc(C)c(C(Cl)S(=O)(=O)c2cccc(C)[n+]2[O-])c1 (centres unmarked) [Compound 73] | >100.0 µg/mL | 2.80 µg/mL (≈ 8.59 µM) | >20 | 0.0 | – | Antiviral % Inhibition Davis strain CMV (Davis strain CMV; HEL cells): 40.0%
13 | O=S(=O)(Cc1cccc(Br)c1)c1cccc[n+]1[O-] [Compound 38] | ≧4 ug/ml | 2.50 µg/mL (≈ 7.62 µM) | 5.0 | 37.5 | – | –
14 | CCC(c1cc(C)ccc1C)S(=O)(=O)c1c(C)ccc[n+]1[O-] (centres unmarked) [Compound 79, 2-[[1-(2,5-dimethylphenyl)propyl]sulfonyl]-3-methylpyridine-1-oxide] | – | – | – | 37.5 | – | EC50 (HIV-2 (ROD); [1]): ≥ 20 µg/mL; EC50 (HIV-1 (IIIB); [1]): 1.4 µg/mL (≈ 4.38 µM); EC50 (Davis strain CMV; [3]): 0.8 µg/mL (≈ 2.5 µM)
15 | O=S(=O)(c1ccc(Cl)c[n+]1[O-])C(Cl)c1ccccc1 (centres unmarked) [Compound 114, 2-(Phenylchloromethylsulfonyl)-5-chloropyridine N-oxide] | – | – | – | 0.0 | 0.0 | EC50 (HIV-2 (ROD); [1]): > 0.8 µg/mL; EC50 (HIV-1 (IIIB); [1]): > 0.8 µg/mL; Antiviral % Inhibition Davis strain CMV (Davis strain CMV; HEL cells): 20.0%; EC50 (Davis strain CMV; [3]): > 20 µg/mL
16 | O=[N+]([O-])c1ccccc1CS(=O)(=O)c1cccc[n+]1[O-] [Compound 42] | ≧4 ug/ml | 8.00 µg/mL (≈ 27.2 µM) | >5 | 37.5 | – | Antiviral % Inhibition Davis strain CMV (Davis strain CMV; HEL cells): 10.0%
17 | O=[N+]([O-])c1cc(CS(=O)(=O)c2cccc[n+]2[O-])cc([N+](=O)[O-])c1 [Compound 65] | 3.5 µg/mL (≈ 10.3 µM) | 2.80 µg/mL (≈ 8.25 µM) | 5.0 | – | – | –
18 | Cc1ccc(CS(=O)(=O)c2cccc[n+]2[O-])c(C)c1 [Compound 52] | 6.5 µg/mL (≈ 23.4 µM) | 6.00 µg/mL (≈ 21.6 µM) | 12.0 | – | – | –
19 | O=S(=O)(Cc1c2ccccc2cc2ccccc12)c1cccc[n+]1[O-] [Compound 51, 2[1(9-anthryl)methylsulfonyl]pyridine-N-oxide] | – | – | – | 0.0 | 0.0 | EC50 (HIV-2 (ROD); [1]): > 0.8 µg/mL; EC50 (HIV-1 (IIIB); [1]): > 0.8 µg/mL; EC50 (Davis strain CMV; [3]): 1.3 µg/mL (≈ 3.72 µM)
20 | Cc1ccc(C)c(C(C)S(=O)(=O)c2cccc(Cl)[n+]2[O-])c1 (centres unmarked) [Compound 76] | 2.4 µg/mL (≈ 7.37 µM) | 0.90 µg/mL (≈ 2.76 µM) | 9.1 | – | – | –
21 | O=S(=O)(Cc1c(Cl)c(Cl)c(Cl)c(Cl)c1Cl)c1cccc[n+]1[O-] [Compound 32, 2-(Pentachlorobenzylsulfonyl)-pyridine-N-oxide] | – | – | – | – | – | EC50 (HIV-2 (ROD)): 1 µg/mL (≈ 2.37 µM); EC50 (HIV-1 (IIIB); [1]): 0.63 µg/mL (≈ 1.49 µM); EC50 (Davis strain CMV; [4]): 14 µg/mL (≈ 33.2 µM)
22 | O=S(=O)(Cc1ccccc1F)c1cccc[n+]1[O-] [Compound 22] | 6.3 µg/mL (≈ 23.6 µM) | 12.00 µg/mL (≈ 44.9 µM) | 7.0 | – | – | –
23 | Cc1ccccc1C[S+]([O-])c1cccc[n+]1[O-] (centres unmarked) [Compound 90] | – | ≧20 ug/ml | 37.0 | – | 37.5 | –
24 | Nc1nc2c(ncn2COC(CO)CO)c(=O)[nH]1 [DHPG, reference compound] | – | – | 1 | – | – | –

The next lines start with results.

Row | EC50 (ug/ml) HIV-2 (HIV-2 (ROD); [1]) | EC50 (ug/ml) HIV-1 (HIV-1 (IIIB); [1]) | Antiviral EC50 (ug/ml) Davis strain CMV (Davis strain CMV; [2]) [µg/mL] | SMILES | HIV-2 % Protection (HIV-2 (ROD)) [%] | HIV-1 % Protection (HIV-1 (IIIB)) [%] | other results
25 | 16.0 µg/mL (≈ 63.6 µM) | 9.00 µg/mL (≈ 35.8 µM) | 20.0 | [O-][n+]1c(Cl)cccc1SCc1ccccc1 [Compound 149] | – | – | –
26 | >4.0 µg/mL | 3.40 µg/mL (≈ 11.4 µM) | 12.0 | Cc1ccc[n+]([O-])c1S(=O)(=O)Cc1ccccc1Cl [Compound 117] | 0.0 | – | –
27 | >20.00 µg/mL | >20 µg/mL | >20 | [O-][n+]1cc(Cl)ccc1SCc1ccccc1 [Compound 151] | 0.0 | 0.0 | Antiviral % Inhibition Davis strain CMV (Davis strain CMV; HEL cells): 20.0%
28 | 20.0 µg/mL (≈ 76.5 µM) | 3.25 µg/mL (≈ 12.4 µM) | >50 | Cc1ccc(C)c(CS(=O)(=O)c2ccccn2)c1 [Compound 150] | – | – | Antiviral % Inhibition Davis strain CMV (Davis strain CMV; HEL cells): 20.0%
29 | >4 µg/mL | >4 µg/mL | 3.4 | Cc1cccc(CSc2cccc[n+]2C)c1.[Cl-] [Compound 142] | 0.0 | 0.0 | –
30 | >20 µg/mL | >20 µg/mL | 7.0 | COc1cc(C=C(C#N)Sc2cccc[n+]2[O-])cc(OC)c1OC [Compound 160] | 0.0 | 0.0 | –
31 | >20.00 µg/mL | >20 µg/mL | 43.0 | Cc1ccc[n+]([O-])c1S(=O)(=O)Cc1c(Cl)cccc1Cl [Compound 139] | 0.0 | 0.0 | –
32 | >0.8 µg/mL | >.8 µg/mL | 10.0 | COc1ccc(C[S+]([O-])c2cccc[n+]2[O-])cc1OC (centres unmarked) [Compound 98] | 0.0 | 0.0 | –
33 | >20 µg/mL | 1.0 µg/mL (≈ 3.86 µM) | – | Cc1ccc(C)c(CSc2c(C)ccc[n+]2[O-])c1 [Compound 164] | 0.0 | – | –
